According to US12240844B2 (Voronoi, Inc., priority 2019, dated 2025):

Legend:
Assay type in all cases: biochemical
[1] = target: T1, human GST-DYRK1A (full length) (Homo sapiens, UniProt Q13627); assay: GST-DYRK1A enzyme inhibition, ADP-Glo kinase assay; details: read-out: DYRK1 IC50
T1 construct: purified human GST-DYRK1A (full length, Thermo scientifics) enzyme; GST; purchased Thermo scientifics
Procedure, shortened: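 ADP-Glo luminescence quantified kinase activity after a 1 h, 25° C reaction of 10 ng full-length GST-tagged human DYRK1A, substrate and 10 uM ATP in Tris-HCl buffer pH 7.4 with MgCl2, BSA and DTT. Triplicate IC50 values (nM) calculated relative to untreated solvent control.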

[2] = target: T2, human GST-CLK1 (129-end) (Homo sapiens, UniProt P49759); assay: GST-CLK1 enzyme inhibition, ADP-Glo kinase assay; details: ATP 10 uM
T2 construct: purified human GST-CLK1 (129-end, Signalchem) enzyme; GST; purchased Signalchem
Procedure, shortened: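 ADP formation was read by ADP-Glo luminescence after 1 h at 25° C with 3 ng human GST-CLK1 (129-end), substrate and 10 uM ATP in Tris pH 7.4 buffer containing MgCl2, BSA and DTT. Inhibition relative to untreated solvent control gave IC50 (nM), run in triplicate.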

[3] = target: LRRK2 (G2019S) (Homo sapiens, UniProt Q5S007, G2019S); assay: LRRK2 G2019S enzyme inhibition, ADP-Glo kinase assay; set-up: purchased SignalChem L10-12GG
Procedure, shortened: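 Activity read as ADP-Glo luminescence, normalized to untreated solvent control, with IC50 (nM) fitted over 12 final compound levels (top 50 μM). Reaction: 2 h, 25° C, human LRRK2 G2019S 16 ng, ATP 25 μM, substrate 0.2 μg, in Tris-HCl pH 7.4 with MgCl2, BSA and DTT.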

[4] = target: LRRK2 (Homo sapiens, UniProt Q5S007); assay: LRRK2 enzyme inhibition, ADP-Glo kinase assay; set-up: purchased Invitrogen PR8604B
Procedure: In order to evaluate the inhibitory activity of the compounds according to the present invention on LRRK2, LRRK2 (G2019S), DYRK1, CLK1 and TTK kinases, the following experiment was performed.
Example compounds were reacted with the purified human LRRK2 (Invitrogen #PR8604B) enzyme to evaluate the enzyme inhibitory ability as follows. The reaction buffer was used as the composition of 40 mM Tris-HCl pH7.4, 20 mM MgCl2, 0.5 mg/ml BSA and 50 μM DTT, and the reaction of all test materials was performed on the reaction buffer. The compound was diluted with 10 mM DMSO stock in 12 steps by a serial dilution method, and the enzyme activity was measured at the final compound concentrations of 50, 10, 2, 0.4, 0.08, 0.016, 0.0032, 0.00064, 0.000128, 0.0000256, 0.00000512 and 0.000001024 μM. In the test, the human LRRK2 (25 ng) enzyme was reacted with the purified ATP (10 μM) and an enzyme substrate ([…]) at 25° C. for 2 hours, and then the enzyme activity was identified using the in vitro ADP-Glo™ kinase assay (promega). The enzyme activity reaction liquid, an ADP-Glo reaction liquid and an enzyme potency detection solution were reacted in a ratio of 2:2:1, and the degree of inhibition of enzyme activity was measured by Luminescence. The degree of inhibition of enzyme activity according to the treatment concentrations of the respective compounds was calculated based on the fluorescence of the enzyme activity of a solvent control group that was not treated with the compound, where the concentration of each compound to inhibit enzyme activity inhibition by 50% was determined as an IC50 (nM) value and obtained using Prism (Version 5.01, GraphPad) software.
In the table below, the following designations were used for the evaluation of enzyme inhibitory ability.

T2 sequence (P49759 129-484 limits assumed): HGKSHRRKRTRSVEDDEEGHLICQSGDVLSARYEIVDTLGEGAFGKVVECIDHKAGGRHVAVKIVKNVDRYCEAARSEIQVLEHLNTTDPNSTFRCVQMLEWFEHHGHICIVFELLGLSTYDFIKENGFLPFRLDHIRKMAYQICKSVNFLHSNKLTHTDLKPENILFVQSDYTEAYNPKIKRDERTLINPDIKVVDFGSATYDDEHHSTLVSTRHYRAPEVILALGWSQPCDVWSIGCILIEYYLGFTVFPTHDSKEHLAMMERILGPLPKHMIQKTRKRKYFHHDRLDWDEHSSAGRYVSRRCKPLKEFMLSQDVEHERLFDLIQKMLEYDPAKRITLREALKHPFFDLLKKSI
Sequence of LRRK2 (Q5S007 970-2527 limits assumed): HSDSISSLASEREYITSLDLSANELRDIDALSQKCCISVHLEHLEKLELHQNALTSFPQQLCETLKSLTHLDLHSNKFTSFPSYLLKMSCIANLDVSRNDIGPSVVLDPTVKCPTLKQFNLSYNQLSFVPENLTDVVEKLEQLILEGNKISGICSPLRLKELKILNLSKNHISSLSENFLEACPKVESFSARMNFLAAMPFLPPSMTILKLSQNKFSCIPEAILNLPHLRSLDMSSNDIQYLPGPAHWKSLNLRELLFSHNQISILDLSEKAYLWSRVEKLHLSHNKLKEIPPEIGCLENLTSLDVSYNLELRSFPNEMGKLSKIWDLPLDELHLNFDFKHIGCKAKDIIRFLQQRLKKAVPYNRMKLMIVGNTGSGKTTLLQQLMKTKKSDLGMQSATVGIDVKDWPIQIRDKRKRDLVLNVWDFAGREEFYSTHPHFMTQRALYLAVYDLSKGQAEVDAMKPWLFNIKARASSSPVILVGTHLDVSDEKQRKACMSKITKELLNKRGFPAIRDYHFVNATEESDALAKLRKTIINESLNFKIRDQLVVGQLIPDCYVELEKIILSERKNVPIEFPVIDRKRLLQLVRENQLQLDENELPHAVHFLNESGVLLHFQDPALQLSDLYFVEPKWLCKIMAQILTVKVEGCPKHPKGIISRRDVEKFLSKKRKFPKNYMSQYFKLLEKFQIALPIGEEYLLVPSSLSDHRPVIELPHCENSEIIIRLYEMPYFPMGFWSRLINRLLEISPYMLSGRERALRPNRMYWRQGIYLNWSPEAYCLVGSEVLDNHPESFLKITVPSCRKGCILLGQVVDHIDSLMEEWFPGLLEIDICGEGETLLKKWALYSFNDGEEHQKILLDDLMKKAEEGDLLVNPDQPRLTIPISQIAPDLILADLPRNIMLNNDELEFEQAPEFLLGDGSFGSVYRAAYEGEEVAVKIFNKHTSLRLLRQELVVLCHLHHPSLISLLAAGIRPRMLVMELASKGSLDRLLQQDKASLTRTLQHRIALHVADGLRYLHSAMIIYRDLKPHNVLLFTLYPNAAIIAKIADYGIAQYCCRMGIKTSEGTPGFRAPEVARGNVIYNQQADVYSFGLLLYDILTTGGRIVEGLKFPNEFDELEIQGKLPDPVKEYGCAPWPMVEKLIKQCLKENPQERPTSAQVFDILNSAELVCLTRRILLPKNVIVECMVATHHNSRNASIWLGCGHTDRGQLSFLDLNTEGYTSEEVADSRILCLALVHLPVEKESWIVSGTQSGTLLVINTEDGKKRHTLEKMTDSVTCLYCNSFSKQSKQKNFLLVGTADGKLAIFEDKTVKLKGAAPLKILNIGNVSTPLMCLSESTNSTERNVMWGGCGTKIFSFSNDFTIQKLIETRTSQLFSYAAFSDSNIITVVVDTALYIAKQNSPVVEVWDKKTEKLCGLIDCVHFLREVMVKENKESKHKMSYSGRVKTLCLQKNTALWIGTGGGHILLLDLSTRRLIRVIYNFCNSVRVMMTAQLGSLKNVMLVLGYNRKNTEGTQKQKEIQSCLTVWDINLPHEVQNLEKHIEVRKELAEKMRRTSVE
Sequence of LRRK2 (G2019S) (Q5S007 970-2527 G2019S limits assumed): as the sequence (Q5S007 970-2527 limits assumed) above, with G1050S counted along it

SMILES | IC50 [1] | IC50 [2] | IC50 [3] | IC50 [4]
CNc1cc(Nc2ccc(S(C)(=O)=O)cc2OC)nc2[nH]ccc12 [Example 25, N^6-(2-methoxy-4-(methylsulfonyl)phenyl)-N^4-methyl-1H-pyrrolo[2,3-b]pyridine-4,6-diamine] | 0.301 to 1 µM | 0.301 to 1 µM | < 0.1 µM | 0.101 to 0.3 µM
CCNc1cc(Nc2ccc(S(C)(=O)=O)cc2OC)nc2[nH]ccc12 [Example 26, N^4-ethyl-N^6-(2-methoxy-4-(methylsulfonyl)phenyl)-1H-pyrrolo[2,3-b]pyridine-4,6-diamine] | 0.301 to 1 µM | 0.301 to 1 µM | < 0.1 µM | < 0.1 µM
CCCNc1cc(Nc2ccc(S(C)(=O)=O)cc2OC)nc2[nH]ccc12 [Example 27, N^6-(2-methoxy-4-(methylsulfonyl)phenyl)-N^4-propyl-1H-pyrrolo[2,3-b]pyridine-4,6-diamine] | 0.301 to 1 µM | 0.301 to 1 µM | < 0.1 µM | < 0.1 µM
COc1cc(S(C)(=O)=O)ccc1Nc1cc(NC(C)C)c2cc[nH]c2n1 [Example 28, N^4-isopropyl-N^6-(2-methoxy-4-(methylsulfonyl)phenyl)-1H-pyrrolo[2,3-b]pyridine-4,6-diamine] | 0.301 to 1 µM | 0.301 to 1 µM | 0.301 to 1 µM | 0.101 to 0.3 µM
COc1cc(S(C)(=O)=O)ccc1Nc1cc(NCC(C)C)c2cc[nH]c2n1 [Example 29, N^4-isobutyl-N^6-(2-methoxy-4-(methylsulfonyl)phenyl)-1H-pyrrolo[2,3-b]pyridine-4,6-diamine] | 0.301 to 1 µM | 0.301 to 1 µM | 0.101 to 0.3 µM | < 0.1 µM
CCNc1cc(Nc2ccc(P(C)(=O)O)cc2OC)nc2[nH]ccc12 [Example 32, (4-((4-(ethylamino)-1H-pyrrolo[2,3-b]pyridin-6-yl)amino)-3-methoxyphenyl) (methyl)phosphinic acid] | 0.301 to 1 µM | 0.301 to 1 µM | 0.301 to 1 µM | 0.301 to 1 µM
CNc1cc(Nc2ccc(C(=O)N3CCOCC3)c3c2OCC3)nc2[nH]cc(C(F)(F)F)c12 [Example 52, (7-((4-(methylamino)-3-(trifluoromethyl)-1H-pyrrolo[2,3-b]pyridin-6-yl)amino)-2,3-dihydrobenzofuran-4-yl)(morpholino) methanone] | < 0.1 µM | < 0.1 µM | < 0.1 µM | < 0.1 µM
O=C(c1ccc(Nc2cc(NC3CC3)c3c(C(F)(F)F)c[nH]c3n2)c2c1CCO2)N1CCOCC1 [Example 53, (7-((4-(cyclopropylamino)-3-(trifluoromethyl)-1H-pyrrolo[2,3-b]pyridin-6-yl)amino)-2,3-dihydrobenzofuran-4-yl)(morpholino) methanone] | < 0.1 µM | < 0.1 µM | < 0.1 µM | < 0.1 µM
COc1cc(P2(=O)CCN(C3CC3)CC2)ccc1Nc1cc(NC2CC2)c2c(C(F)(F)F)c[nH]c2n1 [Example 211, 1-cyclopropyl-4-(4-((4-(cyclopropylamino)-3-(trifluoromethyl)-1H-pyrrolo[2,3-b]pyridin-6-yl)amino)-3-methoxyphenyl)-1,4-azaphosphinane 4-oxide] | 0.301 to 1 µM | 0.301 to 1 µM |  | < 0.1 µM
COc1cc(P2(=O)CCN(C3CC3)CC2)ccc1Nc1cc(C2CC2)c2c(C(F)(F)F)c[nH]c2n1 [Example 218, 1-cyclopropyl-4-(4-((4-cyclopropyl-3-(trifluoromethyl)-1H-pyrrolo[2,3-b]pyridin-6-yl)amino)-3-methoxyphenyl)-1,4-azaphosphinane 4-oxide] | 0.301 to 1 µM | 0.301 to 1 µM |  | < 0.1 µM
CCOc1cc(Nc2ccc(C(=O)N3CCOCC3)c3c2OCCO3)nc2[nH]cc(C(F)(F)F)c12 [Example 231, (8-((4-ethoxy-3-(trifluoromethyl)-1H-pyrrolo[2,3-b]pyridin-6-yl)amino)-2,3-dihydrobenzo[b] [1,4]dioxin-5-yl)(morpholino) methanone] | 0.301 to 1 µM | 0.301 to 1 µM |  | < 0.1 µM
